The results in this text go back to patent US12338243B2, “P2X7 modulators” (JANSSEN PHARMACEUTICA NV, priority 2014, dated 2025).

SMILES strings stand for the structures.

What is called Ki is the equilibrium dissociation constant of an inhibitor or competing ligand from its target. A low value points to a stronger hold on the target. The IC50 is the concentration that gives 50% inhibition.

The target in assay [1] is T1, P2X7 (Homo sapiens, UniProt Q99572).
T1 sequence (Q99572 1-595): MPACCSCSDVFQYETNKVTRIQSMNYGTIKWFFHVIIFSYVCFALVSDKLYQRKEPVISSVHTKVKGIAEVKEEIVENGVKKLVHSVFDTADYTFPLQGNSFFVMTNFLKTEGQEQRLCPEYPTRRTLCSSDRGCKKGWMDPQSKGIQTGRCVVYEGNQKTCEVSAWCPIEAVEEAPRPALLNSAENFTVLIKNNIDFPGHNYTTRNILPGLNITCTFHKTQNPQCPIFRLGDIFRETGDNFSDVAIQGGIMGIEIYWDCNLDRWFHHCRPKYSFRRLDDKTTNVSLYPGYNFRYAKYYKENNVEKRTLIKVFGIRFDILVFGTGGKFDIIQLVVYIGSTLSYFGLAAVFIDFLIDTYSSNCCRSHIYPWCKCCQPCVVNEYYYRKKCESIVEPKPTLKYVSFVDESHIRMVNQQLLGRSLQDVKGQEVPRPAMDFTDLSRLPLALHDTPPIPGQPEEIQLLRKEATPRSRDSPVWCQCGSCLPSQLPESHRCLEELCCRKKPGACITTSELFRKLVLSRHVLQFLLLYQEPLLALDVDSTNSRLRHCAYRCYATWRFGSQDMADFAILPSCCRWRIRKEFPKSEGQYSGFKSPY
Description: Radioligand binding, human P2X7-1321N1 cell membranes, tritiated A-804598.
Description: (§1) P2X7 Antagonism in Recombinant Human P2X7 Cells or Recombinant Rat P2X7 Cells: (a) Ca^2+ Flux and (b) Radioligand Binding

The target of assay [2] is T2, rat P2X7 (Rattus norvegicus, UniProt Q64663).
T2 sequence (Q64663 1-595): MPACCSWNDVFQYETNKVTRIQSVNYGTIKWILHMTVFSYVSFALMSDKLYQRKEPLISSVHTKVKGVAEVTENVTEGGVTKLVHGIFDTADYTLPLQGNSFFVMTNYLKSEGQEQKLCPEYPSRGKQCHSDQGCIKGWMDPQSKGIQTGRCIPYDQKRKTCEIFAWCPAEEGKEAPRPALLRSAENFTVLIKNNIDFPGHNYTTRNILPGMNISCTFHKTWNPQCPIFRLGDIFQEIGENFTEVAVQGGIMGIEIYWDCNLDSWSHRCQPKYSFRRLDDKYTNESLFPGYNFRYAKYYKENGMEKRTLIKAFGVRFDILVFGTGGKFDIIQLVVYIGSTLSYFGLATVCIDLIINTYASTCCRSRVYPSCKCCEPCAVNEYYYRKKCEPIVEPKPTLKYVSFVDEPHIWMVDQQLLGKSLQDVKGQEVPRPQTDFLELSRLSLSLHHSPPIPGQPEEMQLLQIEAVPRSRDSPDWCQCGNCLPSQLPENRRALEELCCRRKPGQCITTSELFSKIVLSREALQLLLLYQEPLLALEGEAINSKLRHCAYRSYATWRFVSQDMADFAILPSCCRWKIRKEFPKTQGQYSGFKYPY
The assay can be described thus: Ca2+ flux (FLIPR) in 1321N1 cells expressing recombinant rat P2X7 channel. Particulars: FLIPR (rat) IC50 (μM), 250 μM BzATP. On the technique in general: A change in cytosolic calcium serves as a functional read-out for many receptors and channels.

Assay [3] has as its target T1, P2X7. Description: Ca2+ flux (FLIPR) in 1321N1 cells expressing recombinant human P2X7 channel. Format: cell-based. Also on record: expressed in transfected cells; host or cells: 1321N1 cells. To be noted: 250 μM BzATP. Put shortly: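 1321N1 cells expressing recombinant human P2X7, loaded 60 min with Calcium-4 dye in HEPES buffer pH 7.40 (1 mM CaCl2, 1 mM MgCl2), preincubated 30 min with compounds. Fluorescence change recorded 180 seconds after agonist addition.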

In assay [4] the target is T2, rat P2X7. Description: Radioligand binding, rat P2X7-1321N1 cell membranes, tritiated A-804598.
Description: as §1

Take `O=C(c1cccc(C(F)(F)F)c1Cl)N1CCn2c(nnc2C(F)(F)F)C1c1ccccc1` (racemic) [Example 75, (±)-(2-chloro-3-(trifluoromethyl)phenyl)(8-phenyl-3-(trifluoromethyl)-5,6-dihydro-[1,2,4]triazolo[4,3-a]pyrazin-7(8H)-yl)methanone]: the Ki at P2X7 [1] is 28.8 nM; at rat P2X7 [4] it was 25.1 nM. Besides, the IC50 at rat P2X7 [2] is 0.542 µM; on P2X7 [3], 52.9 nM.

Regarding `C[C@@H]1c2nnc(-c3ccccn3)n2CCN1C(=O)c1cccc(Cl)c1Cl` (single isomer, unassigned) [Example 2], on rat P2X7 [2], the IC50 was 0.815 µM. In addition, on rat P2X7 [4], the Ki is 9.3 nM.

As for `C[C@H]1c2nnc(-c3ccccn3)n2CCN1C(=O)c1cccc(Cl)c1Cl` (single isomer, unassigned) [Example 3], the concentration for half-maximal inhibition (IC50) on rat P2X7 [2] is above 10 µM. Also, at rat P2X7 [4], the inhibition constant Ki turned out to be 1780 nM.

Turning to `C[C@H]1Cn2c(nnc2-c2ccccc2F)CN1C(=O)c1cccc(Cl)c1Cl` [Example 38, (S)-(2,3-dichlorophenyl)(3-(2-fluorophenyl)-6-methyl-5,6-dihydro-[1,2,4]triazolo[4,3-a]pyrazin-7(8H)-yl)methanone], the figures for the IC50 on rat P2X7 [2] and on P2X7 [3] were 7.67 µM and 9930 nM, respectively. Moreover, the affinity on rat P2X7 [4] corresponds to a Ki of 56.2 nM.

`C[C@H]1Cn2c(nnc2-c2cccc(F)c2)CN1C(=O)c1cccc(C(F)(F)F)c1Cl` [Example 42, (S)-(2-chloro-3-(trifluoromethyl)phenyl)(3-(3-fluorophenyl)-6-methyl-5,6-dihydro-[1,2,4]triazolo[4,3-a]pyrazin-7(8H)-yl)methanone]: the IC50 on rat P2X7 [2] is 9.23 µM; on P2X7 [3], 2130 nM. Moreover, the inhibition constant Ki at rat P2X7 [4] was 18.6 nM.

Consider `C[C@H]1Cn2c(nnc2-c2cccc(F)c2)CN1C(=O)c1ccc(F)c(Cl)c1Cl` [Example 43, (S)-(2,3-dichloro-4-fluorophenyl)(3-(3-fluorophenyl)-6-methyl-5,6-dihydro-[1,2,4]triazolo[4,3-a]pyrazin-7(8H)-yl)methanone], for which the IC50 on rat P2X7 [2] is above 10 µM; on P2X7 [3] it was 9710 nM. The affinity on rat P2X7 [4] corresponds to a Ki of 133 nM.

With `Cc1nnc2n1CCN(C(=O)c1cccc(C(F)(F)F)c1Cl)[C@H]2c1ccccc1` [Example 66, (S)-(2-chloro-3-(trifluoromethyl)phenyl)(3-methyl-8-phenyl-5,6-dihydro-[1,2,4]triazolo[4,3-a]pyrazin-7(8H)-yl)methanone], the Ki at P2X7 [1] stood at 7.9 nM; on rat P2X7 [4], 2 nM. Further, the results for the IC50 on rat P2X7 [2] and on P2X7 [3] were 0.0269 µM and 2.7 nM, respectively.

As to `Cc1nnc2n1CCN(C(=O)c1cccc(C(F)(F)F)c1Cl)[C@@H]2c1ccccc1` [Example 67, (R)-(2-chloro-3-(trifluoromethyl)phenyl)(3-methyl-8-phenyl-5,6-dihydro-[1,2,4]triazolo[4,3-a]pyrazin-7(8H)-yl)methanone], affinity at P2X7 [1] was put at a Ki of 316 nM. The IC50 on rat P2X7 [2] came to 2.05 µM; on P2X7 [3] it was 483 nM.

With `COc1ccc(-c2nnc3n2C[C@H](C)N(C(=O)c2cccc(Cl)c2Cl)C3)nc1` [Example 72, (S)-(2,3-dichlorophenyl)(3-(5-methoxypyridin-2-yl)-6-methyl-5,6-dihydro-[1,2,4]triazolo[4,3-a]pyrazin-7(8H)-yl)methanone], the IC50 at rat P2X7 [2] is above 10 µM; on P2X7 [3] it was 8590 nM. This compound also yielded an inhibition constant (Ki) on rat P2X7 [4] of 178 nM.

As to `O=C(c1cccc(C(F)(F)F)c1Cl)N1CCn2c(-c3ccco3)nnc2[C@@H]1c1ccccc1` [Example 84, (S)-(2-chloro-3-(trifluoromethyl)phenyl)(3-(furan-2-yl)-8-phenyl-5,6-dihydro-[1,2,4]triazolo[4,3-a]pyrazin-7(8H)-yl)methanone], on P2X7 [1], the affinity, expressed as Ki, was 20 nM. The IC50 is 0.0031 µM on rat P2X7 [2] and 2.5 nM on P2X7 [3].

Consider `Cc1nnc2n1CCN(C(=O)c1cccc(C(F)(F)F)c1Cl)[C@@H]2c1ccccn1` [Example 91, (R)-(2-chloro-3-(trifluoromethyl)phenyl)(3-methyl-8-(pyridin-2-yl)-5,6-dihydro-[1,2,4]triazolo[4,3-a]pyrazin-7(8H)-yl)methanone], for which the Ki on P2X7 [1] is 31.6 nM. For the same compound, the figures for the 50% inhibitory concentration (IC50) at rat P2X7 [2] and on P2X7 [3] were 2.13 µM and 7.5 nM, respectively.

`Cc1nnc2n1CCN(C(=O)c1cccc(Cl)c1Cl)[C@H]2c1ccc(F)cc1` [Example 105, (S)-(2,3-dichlorophenyl)(8-(4-fluorophenyl)-3-methyl-5,6-dihydro-[1,2,4]triazolo[4,3-a]pyrazin-7(8H)-yl)methanone]: the affinity at P2X7 [1] corresponds to a Ki of 21.9 nM. For the same compound, the IC50 stood at 9.95 µM at rat P2X7 [2] and 98.6 nM at P2X7 [3].

As for `O=C(c1cccc(C(F)(F)F)c1Cl)N1CCn2c(C3CC3)nnc2[C@@H]1c1ccc(F)cc1` [Example 107, (S)-(2-chloro-3-(trifluoromethyl)phenyl)(3-cyclopropyl-8-(4-fluorophenyl)-5,6-dihydro-[1,2,4]triazolo[4,3-a]pyrazin-7(8H)-yl)methanone], the affinity at P2X7 [1] corresponds to a Ki of 10 nM. In addition, the results for the IC50 on rat P2X7 [2] and at P2X7 [3] were 0.178 µM and 12.8 nM, respectively.

Regarding `Cc1nnc2n1CCN(C(=O)c1cccc(Cl)c1Cl)[C@@H]2c1ccccn1` [Example 112, (R)-(2,3-dichlorophenyl)(3-methyl-8-(pyridin-2-yl)-5,6-dihydro-[1,2,4]triazolo[4,3-a]pyrazin-7(8H)-yl)methanone], the inhibitory constant (Ki) on P2X7 [1] turned out to be 44.7 nM. The half-inhibitory concentration (IC50) on rat P2X7 [2] stood at 2.82 µM; on P2X7 [3], 134 nM.

For `Cc1nnc2n1CCN(C(=O)c1cccc(C(F)(F)F)c1Cl)[C@H]2c1ccc(F)cc1` [Example 115, (S)-(2-chloro-3-(trifluoromethyl)phenyl)(8-(4-fluorophenyl)-3-methyl-5,6-dihydro-[1,2,4]triazolo[4,3-a]pyrazin-7(8H)-yl)methanone], the affinity at P2X7 [1] corresponds to a Ki of 10 nM. Besides, the results for the half-maximal inhibitory concentration (IC50) at rat P2X7 [2] and on P2X7 [3] were 0.623 µM and 8 nM, respectively.

In turn, `Cc1c(C(=O)N2CCn3c(C)nnc3[C@@H]2c2ccc(F)cc2)cccc1C(F)(F)F` [Example 117, (S)-(8-(4-fluorophenyl)-3-methyl-5,6-dihydro-[1,2,4]triazolo[4,3-a]pyrazin-7(8H)-yl)(2-methyl-3-(trifluoromethyl)phenyl)methanone] showed a Ki on P2X7 [1] of 20 nM. Moreover, the IC50 on rat P2X7 [2] was 7.03 µM; on P2X7 [3], 64 nM.

On P2X7 [1], `O=C(c1ccc(Cl)cc1Cl)N1CCn2c(nnc2C(F)(F)F)[C@H]1c1ccccc1` [Example 120, (R)-(2,4-dichlorophenyl)(8-phenyl-3-(trifluoromethyl)-5,6-dihydro-[1,2,4]triazolo[4,3-a]pyrazin-7(8H)-yl)methanone] came in with a Ki of 50.1 nM. The IC50 was above 10 µM at rat P2X7 [2] and 476 nM at P2X7 [3].

Consider `Cc1c(C(=O)N2CCn3c(nnc3C(F)(F)F)[C@H]2c2ccccc2)cccc1C(F)(F)F` [Example 122, (R)-(2-methyl-3-(trifluoromethyl)phenyl)(8-phenyl-3-(trifluoromethyl)-5,6-dihydro-[1,2,4]triazolo[4,3-a]pyrazin-7(8H)-yl)methanone], for which the Ki at P2X7 [1] came to 10 nM. Further, the values for the IC50 at rat P2X7 [2] and at P2X7 [3] were 0.262 µM and 9.8 nM, respectively.

For `O=C(c1ccc(F)c(Cl)c1Cl)N1CCn2c(nnc2C(F)(F)F)[C@H]1c1ccccc1` [Example 124, (R)-(2,3-dichloro-4-fluorophenyl)(8-phenyl-3-(trifluoromethyl)-5,6-dihydro-[1,2,4]triazolo[4,3-a]pyrazin-7(8H)-yl)methanone], the inhibitory constant (Ki) at P2X7 [1] was 7.9 nM. The IC50 at rat P2X7 [2] was 0.288 µM; on P2X7 [3], 10.6 nM.

Compound `O=C(c1cccc(C(F)(F)F)c1F)N1CCn2c(nnc2C(F)(F)F)[C@H]1c1ccccc1` [Example 128, (R)-(2-fluoro-3-(trifluoromethyl)phenyl)(8-phenyl-3-(trifluoromethyl)-5,6-dihydro-[1,2,4]triazolo[4,3-a]pyrazin-7(8H)-yl)methanone] yielded a Ki on P2X7 [1] of 50.1 nM. Further, the concentration for half-maximal inhibition (IC50) at rat P2X7 [2] turned out to be 0.291 µM; on P2X7 [3] it was 68.5 nM.
